pIC50: −log10 of the molar value. Values joined by “and” are separate entries in the source; they are usually repeats but may differ in a detail not shown here. Identical values can stand only once.
Each compound was assayed against T1, Lymphokine-activated killer T-cell-originated protein kinase (Homo sapiens, UniProt Q96KB5) (assay: Kinase Assay). Conditions: pH 7.4; 25 °C.
T1 sequence (Q96KB5 whole entry): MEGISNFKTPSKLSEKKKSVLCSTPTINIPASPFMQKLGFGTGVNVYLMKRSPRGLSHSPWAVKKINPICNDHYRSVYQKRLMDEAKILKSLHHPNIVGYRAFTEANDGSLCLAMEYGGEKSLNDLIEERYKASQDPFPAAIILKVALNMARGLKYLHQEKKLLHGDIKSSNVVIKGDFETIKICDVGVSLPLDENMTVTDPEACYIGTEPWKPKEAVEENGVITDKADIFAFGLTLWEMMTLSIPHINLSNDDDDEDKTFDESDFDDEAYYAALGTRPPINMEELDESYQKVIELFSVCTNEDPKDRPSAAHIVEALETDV
Method: PBK activity was determined in the presence or absence of compounds using fluorescein isothiocyanate-labeled (FITC-labeled) histone H3 peptide as a substrate. […] The serially diluted compounds, 0.8 ng/micro-L PBK (Carna Biosciences) and 100 nM FITC-labeled histone H3 peptide were reacted in a reaction buffer (20 mM HEPES, 0.01% Tween-20, 0.3 mM MgCl2, 2 mM dithiothreitol, 50 micro-M ATP, pH 7.4) at room temperature for 1 hour. The reaction was stopped by the addition of three fold assay volume of progressive binding solution. Following 0.5 hour incubation at room temperature.

In order of falling pIC50:
1. CCC(N)c1ccc(-c2c(O)ccc3[nH]c(=O)c4sccc4c23)cc1 (configuration not stated) [US8962648, 336]  9.09
2. CC(N)c1ccc(-c2c(O)ccc3[nH]c(=O)c4sccc4c23)cc1F (configuration not stated) [US8962648, 359]  9.04
3. CN[C@@H](C)c1ccc(-c2c(O)ccc3[nH]c(=O)c4sccc4c23)cc1 [US8962648, 1082]  8.96
4. NC1Cc2ccc(-c3c(O)ccc4[nH]c(=O)c5sccc5c34)cc2C1 (configuration not stated) [US8962648, 345]  8.92
5. CC(N)Cc1ccc(-c2c(O)ccc3[nH]c(=O)c4sccc4c23)cc1 (configuration not stated) [US8962648, 1095]  8.89
6. CN(C)CCc1ccc(-c2c(O)ccc3[nH]c(=O)c4sccc4c23)cc1F [US8962648, 327]  8.72
7. CCC(c1ccc(-c2c(O)ccc3[nH]c(=O)c4sccc4c23)cc1)N(C)C (configuration not stated) [US8962648, 339]  8.72
8. NCC1(c2ccc(-c3c(O)ccc4[nH]c(=O)c5sccc5c34)cc2)CC1 [US8962648, 348]  8.72
9. CC(c1ccc(-c2c(O)ccc3[nH]c(=O)c4sccc4c23)cc1F)N(C)C (configuration not stated) [US8962648, 349]  8.72
10. O=c1[nH]c2ccc(O)c(-c3ccc4c(c3)CNCC4)c2c2ccsc12 [US8962648, 353]  8.70
11. CN[C@@H](C)c1ccc(-c2c(OC)ccc3[nH]c(=O)c4sccc4c23)cc1 [US8962648, 1064]  8.60
12. C[C@@H](c1ccc(-c2c(O)ccc3[nH]c(=O)c4sccc4c23)cc1)N(C)C [US8962648, 335]  8.54
13. COc1ccc2[nH]c(=O)c3sccc3c2c1-c1ccc(C(C)CN)cc1 (configuration not stated) [US8962648, 373]  8.49
14. CCN(CC)C(C)c1ccc(-c2c(O)ccc3[nH]c(=O)c4sccc4c23)cc1F (configuration not stated) [US8962648, 356]  8.44
15. CN(C)CC1(c2ccc(-c3c(O)ccc4[nH]c(=O)c5sccc5c34)cc2)CC1 [US8962648, 379]  8.44
16. CCC(c1ccc(-c2c(O)ccc3[nH]c(=O)c4sccc4c23)cc1)N(CC)CC (configuration not stated) [US8962648, 338]  8.43
17. CCNC(C)c1ccc(-c2c(O)ccc3[nH]c(=O)c4sccc4c23)cc1 (configuration not stated) [US8962648, 385]  8.41
18. CCC(N)c1ccc(-c2c(OC)ccc3[nH]c(=O)c4sccc4c23)cc1 (configuration not stated) [US8962648, 337]  8.28
19. CC(c1ccc(-c2cccc3[nH]c(=O)c4sccc4c23)cc1)N(C)C (configuration not stated) [US8962648, 346]  8.04
20. CC(C)(N)c1ccc(-c2c(O)cc(Cl)c3[nH]c(=O)c4sccc4c23)cc1 [US8962648, 334]  8.00
21. O=c1[nH]c2ccc(O)c(-c3ccc(S(=O)(=O)NCCBr)cc3)c2c2c1CCC2 [US8962648, 1094]  8.00
22. NCc1ccc(-c2c(O)cc(Cl)c3[nH]c(=O)c4sccc4c23)cc1 [US8962648, 329]  7.80
23. CCC(N)c1ccc(-c2c(O)cc(Cl)c3[nH]c(=O)c4sccc4c23)cc1 (configuration not stated) [US8962648, 1088]  7.80
24. CN[C@@H](C)c1ccc(-c2c(O)cc(Cl)c3[nH]c(=O)c4sccc4c23)cc1 [US8962648, 1087]  7.72
25. O=c1[nH]c2ccc(O)c(-c3ccc(S(=O)(=O)NCCCl)cc3)c2c2ccsc12 [US8962648, 332]  7.64
26. COc1ccc2[nH]c(=O)c3sccc3c2c1-c1ccc(S(=O)(=O)NCCF)cc1 [US8962648, 333]  7.51
27. CC(CBr)NS(=O)(=O)c1ccc(-c2c(O)ccc3[nH]c(=O)c4sccc4c23)cc1 (configuration not stated) [US8962648, 1062]  7.51
28. N#CC1(c2ccc(-c3c(O)ccc4[nH]c(=O)c5sccc5c34)cc2)CC1 [US8962648, 361]  7.49
29. CC(c1ccc(-c2c(O)c(F)c(F)c3[nH]c(=O)c4sccc4c23)cc1)N(C)C (configuration not stated) [US8962648, 341]  7.47
30. CC(N)c1ccc(-c2c(O)cc(Br)c3[nH]c(=O)c4sccc4c23)cc1 (configuration not stated) [US8962648, 1032]  7.33
31. CC(C)OC(=O)Oc1ccc2[nH]c(=O)c3sccc3c2c1-c1ccc(C(C)N)cc1 (configuration not stated) [US8962648, 1077]  7.12

In the case of CC(NS(C)(=O)=O)c1ccc(-c2c(O)ccc3[nH]c(=O)c4sccc4c23)cc1 (configuration not stated) [US8962648, 347], the pIC50 was 8.43 and 8.70.

Reference: BindingDB's records for patent US8962648 (Oncotherapy Science, 2015)
